Results reported in paper PMC7447632, “Highly functionalized β-lactams and 2-ketopiperazines as TRPM8 antagonists with antiallodynic activity” (Scientific Reports, 2020).

Columns and labels:
TRPM8 = conditions: cited from earlier work; for IC50: Figure 1, literature values; for EC50: Figure 1, literature value
[1] = test system: A549 (lung carcinoma, NSCLC); assay: SRB cytotoxicity assay, A549; type: cell-based; conditions: 72 h, SRB; for TGI A549: total growth inhibition; for TGI A549 / CC50: unit inferred; for GI50 / CC50: Homo sapiens, A549; for CC50: read-out: LC50 A549
Procedure: (§1) Human tumor cell lines used in this study were purchased from the ATCC. A-549 (CCL-185), lung carcinoma; HT-29 (HTB-38), colorectal adenocarcinoma; MDA-MB-231 (HTB-26), breast adenocarcinoma; PSN1, pancreas adenocarcinoma.
(§2) All cell lines were maintained in DMEM (Dulbecco’s Modified Eagle's Medium) culture medium supplemented with 10% FBS (Fetal Bovine Serum), 100 Units/mL penicillin/streptomycin at 37 °C, 5% CO2 and 95% humidity.
(§3) Triplicate cultures were incubated for 72 h in the presence or absence of test compounds in dose–response curves (10 concentrations, typically ranging from 10 to 0.0026 µg/mL). A colorimetric assay using sulforhodamine B (SRB) was adapted for quantitative measurement of cell growth and cytotoxicity. A more detailed information on this assay is provides in the supplementary information. GI50 is the compound concentration that produces 50% inhibition on cell growth as compared to control cells.
(§4) In vitro bioassays for the detection of antitumor activity
(§5) The aim of this assay is to evaluate the in vitro cytostatic (ability to delay or arrest tumor cell growth) or cytotoxic (ability to kill tumor cells) activity of the samples […]
(§6) Name Nº ATCC Species Tissue Characteristics
(§7) A549 CCL-185 human lung lung carcinoma (NSCLC)
(§8) HT29 HTB-38 human colon colorectal adenocarcinoma
(§9) MDA-MB-231 HTB-26 human breast breast adenocarcinoma
(§10) PSN1 CRM-CRL-3211 human pancreas pancreas adenocarcinoma […]
(§11) A colorimetric assay, using Sulforhodamine B (SRB) reaction has been adapted to provide a quantitative measurement of cell growth and viability (following the technique described by Skehan et al. J. Natl. Cancer Inst. 1990, 82, 1107-1112 […]
(§12) This form of assay employs 96-well cell culture microplates following the standards of the American National Standards Institute and the Society for Laboratory […]
(§13) used in this study were obtained from the American Type Culture Collection (ATCC) and derive from different types of human cancer.
(§14) A549, HT29, MDA-MB-231 and PSN1 cells were maintained in Dulbecco’s
(§15) Modified Eagle Medium (DMEM) supplemented with 10% Fetal Bovine Serum (FBS), 2mM L-glutamine, 100 U/mL penicillin, and 100 U/mL streptomycin at 37 °C, 5% CO2 and 98% humidity. For the experiments, cells were harvested from subconfluent cultures using trypsinization and resuspended in fresh medium before counting and […]
(§16) A549, HT29, MDA-MB-231 and PSN1 cells were seeded in 96 well microtiter plates, at 5000 cells per well in aliquots of 150 µL, and allowed to attach to the plate surface for 18 hours (overnight) in drug free medium. After that, one control (untreated) plate of each cell line was fixed (as described below) and used for time zero reference value. Culture plates were then treated with test compounds (50 µL aliquots of 4X stock […]
(§17) solutions in complete culture medium plus 4% DMSO) using ten 2/5 serial dilutions (concentrations ranging from 10 to 0.003 µg/mL) and triplicate cultures (1% final concentration in DMSO). After 72 hours treatment, the antitumor effect was measured by using the SRB methodology: Briefly, cells were washed twice with PBS, fixed for 15 min in 1% glutaraldehyde solution at room temperature, rinsed twice in PBS, and stained in 0.4% SRB solution for 30 min at room temperature. Cells were then rinsed several times with 1% acetic acid solution and air-dried at room temperature. SRB was then extracted in 10 mM trizma base solution and the absorbance measured in an automated spectrophotometric plate reader at 490 nm.
(§18) Effects on cell growth and survival were estimated by applying the NCI algorithm (Boyd MR and Paull KD. Drug Dev. Res. 1995, 34, 91-109, DOI:10.1002/ddr.430340203). The values obtained in triplicate cultures were fitted by nonlinear regression to a four-parameters logistic curve by nonlinear regression analysis. . Using the absorbance measurements [time zero, (Tz), control growth, (C), and test growth in the presence of drug at the ten concentration levels (Ti)], the […]

rat TRPM8 channel = target: T1, rat TRPM8 channel (Rattus norvegicus, UniProt Q8R455); assay: Ca2+ microfluorometry, menthol-induced Ca2+ influx in HEK293 cells expressing rat TRPM8; type: cell-based; conditions: 100 µM menthol, HEK-rTRPM8; for % Blockade 5 µM: 5 µM compound; for % Blockade 50 µM: 50 µM compound; for IC50: Ca2+ microfluorometry
T1 construct: expressed in transfected cells; host or cells: HEK293 (stably transfected)
T1 sequence (Q8R455 whole entry): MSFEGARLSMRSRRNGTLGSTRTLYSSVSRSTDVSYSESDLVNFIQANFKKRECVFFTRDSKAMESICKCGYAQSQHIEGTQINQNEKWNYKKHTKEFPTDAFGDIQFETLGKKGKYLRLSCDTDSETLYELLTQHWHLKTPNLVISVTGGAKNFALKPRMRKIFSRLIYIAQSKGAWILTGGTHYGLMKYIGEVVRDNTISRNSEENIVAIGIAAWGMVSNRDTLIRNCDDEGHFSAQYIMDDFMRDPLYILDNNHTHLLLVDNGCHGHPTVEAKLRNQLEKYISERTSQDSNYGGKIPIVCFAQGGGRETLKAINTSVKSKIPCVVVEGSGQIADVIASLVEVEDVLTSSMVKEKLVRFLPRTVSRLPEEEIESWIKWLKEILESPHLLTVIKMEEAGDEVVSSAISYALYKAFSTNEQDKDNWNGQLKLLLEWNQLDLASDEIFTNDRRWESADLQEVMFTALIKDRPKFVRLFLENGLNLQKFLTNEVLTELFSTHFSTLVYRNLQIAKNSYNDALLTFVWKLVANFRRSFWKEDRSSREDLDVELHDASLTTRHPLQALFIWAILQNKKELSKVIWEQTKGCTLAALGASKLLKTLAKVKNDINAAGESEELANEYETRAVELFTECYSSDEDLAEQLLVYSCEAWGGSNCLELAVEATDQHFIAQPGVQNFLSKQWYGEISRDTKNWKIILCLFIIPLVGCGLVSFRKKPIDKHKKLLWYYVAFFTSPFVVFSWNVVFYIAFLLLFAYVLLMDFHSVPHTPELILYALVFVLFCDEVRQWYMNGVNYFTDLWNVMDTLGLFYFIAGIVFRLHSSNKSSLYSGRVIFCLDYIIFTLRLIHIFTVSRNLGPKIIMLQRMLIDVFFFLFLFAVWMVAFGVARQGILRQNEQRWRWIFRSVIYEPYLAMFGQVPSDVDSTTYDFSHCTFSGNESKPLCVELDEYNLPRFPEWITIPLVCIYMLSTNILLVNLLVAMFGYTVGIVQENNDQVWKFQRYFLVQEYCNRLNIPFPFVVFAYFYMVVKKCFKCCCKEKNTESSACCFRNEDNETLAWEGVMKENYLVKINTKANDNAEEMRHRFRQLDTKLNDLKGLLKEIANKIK
Procedure: The ability to inhibit menthol-induced Ca^2+ intracellular influx into the cytosol on HEK293 cells heterologously expressing the rat TRPM8 channel was measured and compared to that of AMTB, a well-known TRPM8 antagonist. Representative recordings of fluorescence obtained in microfluorometry experiments for selected compounds are in Supplementary Fig. S3.
(§19) Human embryonic kidney cell line (HEK) stably transfected with rTRPM8 or h-TRPV1 were used as previously described. Briefly, cells were seeded in 96-well plates at a cell density of 30,000 cells 2 days before treatment. Buffer used was HBBS (in mM): 138 NaCl, 5.33 KCl, 1.26 CaCl2, 0.5 MgCl-6H2O, 0.4 MgSO4-7H2O, 4 NaHCO3 0.44 KH2PO4, 0.3 Na2HPO4, pH 7.4. The day of treatment the medium was replaced with 100 µL of the dye loading solution Fluo-4 NW supplemented with probenecid 2.5 mM. After incubation, plates were transferred to a fluorescence plate reader (Polastar BMG). In the experimental protocol, the baseline fluorescence was recorded ([…]) for 3 cycles. After, vehicle, compound at different concentrations and the corresponding antagonist, 10 µM AMTB for TRPM8 or 10 µM Ruthenium Red for TRPV1 were added to the well. Fluorescence intensity was recorded during 7 cycles more. Finally, the agonist 100 µM menthol for TRPM8 or 1 µM capsaicin for TRPV1 was added and fluorescence intensity was recorded during 10 cycles more.
The degree of inhibition of TRPM8 channel gating was calculated by comparison to calcium increase signal elicited by test substances and menthol at 100 µM. Decrease of menthol signal was expressed as percentage of inhibition (%). All data are expressed as mean ± standard deviation (SD). Each condition was assessed by triplicate (n = 3) in 3 independent experiments (N = 3). Z-factor was calculated in each assay using the following equation: […]. In all the experiments Z-factor was ≥ 0.5. To calculate IC50, normalized responses (%) versus log [µM] were adjusted to a non-linear fit with variable slope, a four-parameter dose–response curve following curve Y = 100/(1 + 10^((Log IC50-X)*HillSlope)) where […].

hTRPV1 channels = target: T2, hTRPV1 channels (Homo sapiens, UniProt Q8NER1); assay: Ca2+ microfluorometry in HEK cells expressing hTRPV1 (capsaicin); type: cell-based; conditions: 1 µM capsaicin; for TRPV1 Blockade (%) 5 µM: 5 µM compound; for TRPV1 Blockade (%) 50 µM: 50 µM compound
T2 construct: expressed in transfected cells; host or cells: HEK (stably transfected)
T2 sequence (Q8NER1 whole entry): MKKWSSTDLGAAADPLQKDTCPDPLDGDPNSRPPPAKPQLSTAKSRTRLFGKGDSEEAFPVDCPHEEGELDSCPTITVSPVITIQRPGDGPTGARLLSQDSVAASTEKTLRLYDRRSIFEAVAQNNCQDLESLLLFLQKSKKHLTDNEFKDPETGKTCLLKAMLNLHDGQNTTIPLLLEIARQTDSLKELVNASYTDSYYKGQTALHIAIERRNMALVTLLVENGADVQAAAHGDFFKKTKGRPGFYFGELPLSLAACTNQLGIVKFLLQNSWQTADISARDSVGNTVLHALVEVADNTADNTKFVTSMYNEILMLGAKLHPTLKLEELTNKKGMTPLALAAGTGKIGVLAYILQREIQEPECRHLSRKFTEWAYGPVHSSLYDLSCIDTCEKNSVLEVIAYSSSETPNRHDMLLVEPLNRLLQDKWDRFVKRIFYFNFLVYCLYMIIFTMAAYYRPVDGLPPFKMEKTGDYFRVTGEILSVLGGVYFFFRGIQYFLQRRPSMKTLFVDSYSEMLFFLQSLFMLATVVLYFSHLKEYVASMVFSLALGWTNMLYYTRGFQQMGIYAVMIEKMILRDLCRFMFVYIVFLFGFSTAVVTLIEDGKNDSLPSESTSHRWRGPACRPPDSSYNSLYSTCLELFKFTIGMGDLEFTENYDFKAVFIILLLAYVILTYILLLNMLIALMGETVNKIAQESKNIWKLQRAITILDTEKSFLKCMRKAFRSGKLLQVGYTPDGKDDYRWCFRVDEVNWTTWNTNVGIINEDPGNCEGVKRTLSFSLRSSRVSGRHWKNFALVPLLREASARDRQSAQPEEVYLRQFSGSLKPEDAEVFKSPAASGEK
Procedure: β-Lactam and 2-ketopiperazine derivatives were also assayed for their activity in cell expressing hTRPV1 channels. No significant antagonist activity was measured for any derivatives within both chemotypes (Supplementary Tables S1, S2, and Fig. S3), indicating their selectivity for TRPM8 channels.
as §19
Table S1. Activity at hTRPV1 of β–lactams derived from phenylalaninol conjugates
Compd. Isomer Isomer TRPV1 Blockade (%)
Table S2. Activity at hTRPV1 of 2-ketopiperazines derived from phenylalaninol

[2] = test system: HT29 (colorectal adenocarcinoma); assay: SRB cytotoxicity assay, HT29; type: cell-based; conditions: 72 h, SRB; for TGI HT29: total growth inhibition; for TGI HT29 / CC50: unit inferred; for GI50 / CC50: Homo sapiens, HT-29; for CC50: read-out: LC50 HT29
Procedure: as §1, §2, §3, §4, §5, §6, §7, §8, §9, §10, §11, §12, §13, §14, §15, §16, §17, §18

[3] = test system: MDA-MB-231 (breast adenocarcinoma); assay: SRB cytotoxicity assay, MDA-MB-231; type: cell-based; conditions: 72 h, SRB; for TGI MDA-MB-231: total growth inhibition; for TGI MDA-MB-231 / CC50: unit inferred; for GI50 / CC50: Homo sapiens, MDA-MB-231; for CC50: read-out: LC50 MDA-MB-231
Procedure: as §1, §2, §3, §4, §5, §6, §7, §8, §9, §10, §11, §12, §13, §14, §15, §16, §17, §18

[4] = test system: PSN1 (pancreas adenocarcinoma); assay: SRB cytotoxicity assay, PSN1; type: cell-based; conditions: 72 h, SRB; for TGI PSN1: total growth inhibition; for TGI PSN1 / CC50: unit inferred; for GI50 / CC50: Homo sapiens, PSN1; for CC50: read-out: LC50 PSN1
Procedure: as §1, §2, §3, §4, §5, §6, §7, §8, §9, §10, §11, §12, §13, §14, §15, §16, §17, §18

In the case of `Cc1cccc(COc2ccccc2C(=O)N(CCCN)Cc2cccs2)c1` [AMTB], the IC50 (TRPM8) is listed as 0.16 µM.

For `COC(=O)[C@H](Cc1c[nH]c2ccccc12)N(Cc1ccccc1)Cc1ccccc1` [Bn2-Trp-OMe], the IC50 (TRPM8) is given as 0.0002 µM.

Work on `O=C(OCc1ccccc1)C(Cc1ccccc1)N1C[C@@H](Cc2ccccc2)N(C(=O)OCc2ccccc2)CC1=O` (some centres unmarked) [Compound 15ab] yielded a TGI A549 [1] greater than 17.8 µM, a GI50 [1] greater than 17.8 µM and a CC50 [1] greater than 17.8 µM. For the same compound, the “% Blockade 5 µM” value (rat TRPM8 channel) was 101.4 ± 6.1%, the “% Blockade 50 µM” value (rat TRPM8 channel) was 106 ± 5.06% and the IC50 (rat TRPM8 channel) was 1.8 ± 1.9 µM. The “TRPV1 Blockade (%) 5 µM” value (hTRPV1 channels) was 6.3±2.1%, the “TRPV1 Blockade (%) 50 µM” value (hTRPV1 channels) was 7.8±4.1% and the TGI HT29 [2] was greater than 17.8 µM. For the same compound, the GI50 [2] was greater than 17.8 µM, the CC50 [2] was greater than 17.8 µM and the TGI MDA-MB-231 [3] was greater than 17.8 µM. For the same compound, the GI50 [3] was greater than 17.8 µM, the CC50 [3] was greater than 17.8 µM and the TGI PSN1 [4] was greater than 17.8 µM. It also gave a GI50 [4] of 6.4 µM and a CC50 [4] greater than 17.8 µM.

`C[C@@H]1C(=O)N(C(Cc2ccccc2)C(=O)OCc2ccccc2)C[C@@H](Cc2ccccc2)N1C(=O)OCc1ccccc1` (some centres unmarked) [Compound 30ab] gave a TGI A549 [1] greater than 17.3 µM, a GI50 [1] of 12.7 µM and a CC50 [1] greater than 17.3 µM. For the same compound, the “% Blockade 5 µM” value (rat TRPM8 channel) was 101.7 ± 5.3%, the “% Blockade 50 µM” value (rat TRPM8 channel) was 101.2 ± 11.4% and the IC50 (rat TRPM8 channel) was 0.16 µM. For the same compound, the “TRPV1 Blockade (%) 5 µM” value (hTRPV1 channels) was 9.2±2.1%, the “TRPV1 Blockade (%) 50 µM” value (hTRPV1 channels) was 13.9±4.8% and the TGI HT29 [2] was greater than 17.3 µM. It also gave a GI50 [2] greater than 17.3 µM, a CC50 [2] greater than 17.3 µM and a TGI MDA-MB-231 [3] greater than 17.3 µM. The GI50 [3] was greater than 17.3 µM, the CC50 [3] was greater than 17.3 µM and the TGI PSN1 [4] was greater than 17.3 µM. For the same compound, the GI50 [4] was 8.3 µM and the CC50 [4] was greater than 17.3 µM.

In the case of `O=C1NC(c2cccc([N+](=O)[O-])c2)=CCN1c1ccccc1O` [Icilin], the EC50 (TRPM8) is given as 0.005 µM.

For `C[C@H](c1cc(F)cc(F)c1)N(C(=O)c1ccccc1)[C@@H](C(N)=O)c1ccccc1` [KPR-2579], the IC50 (TRPM8) is given as 0.008 µM.

For `CC1CCC(C(C)C)C(O)C1` (centres unmarked) [Menthol], the EC50 (TRPM8) is given as 200 to 500 µM.

For `C[C@H](c1ccc(F)cc1)N(Cc1cccc(C(=O)O)c1)C(=O)c1cnc2ccccc2c1` [PF-05105679], the IC50 (TRPM8) is listed as 0.181 µM.

In the case of `O=C(O)c1ccc(S(=O)(=O)N(Cc2ccc(OC(F)(F)F)cc2)c2ncc(C(F)(F)F)cc2Cl)cc1` [RQ 00203078], the IC50 (TRPM8) is given as 0.0083 µM.
